Results on 27 compounds are retold here after patent US20250042879A1, “HETEROCYCLIC SUBSTITUTED 1,3,4-THIADIAZOLE AND PYRIDAZINE COMPOUNDS AND METHODS OF USING THE SAME” (Rgenta Therapeutics, Inc., priority 2021, published 2025).

Where a name gives a salt, the structure may show the parent alone.

This assay concerns HTT. In words: Mini-gene reporter assay-HTT (firefly luciferase, exon inclusion). Type of assay: cell-based. Conditions: Homo sapiens; HTT mini-gene firefly luciferase reporter transiently transfected into HEK293 cells. From the text: Mini-gene reporter constructs for each target site were constructed by first PCR amplifying the region-of-interest including the sequence of the alternatively skipped, sequences of the immediate upstream and downstream introns, and sequences of the immediate upstream and downstream exons. Then the 3′end of the amplified sequence was ligated to a firefly luciferase reporter gene and cloned into the pcDNA3.1 vector backbone. The final reporter construct was transiently transfected into HEK293 cells using Lipofectamine 3000 transfection reagents. Compounds that can induce the inclusion of the skipped exon in the reporter construct would increase the reporter firefly luciferase activity.
Test compounds were diluted in duplicates and dispensed into an assay plate. Transient mini-gene reporter cell line stock was resuspended and dispensed into the assay plate. Assay plates were then centrifuged and incubated. A luciferase reagent (e.g. ONE-Glo firefly luciferase reagent from Promega®) was added to the assay plate and the luminescence (RLU) signals recorded. EC50 values were determined by curve fitting in Levenberg-Marquardt algorithm.
With `Cc1cn2cc(-c3ccc(-c4ccc(C5CNC5)nn4)c(O)c3)cc(F)c2n1` [Compound 1, 2-(6-(azetidin-3-yl)pyridazin-3-yl)-5-(8-fluoro-2-methylimidazo[1,2-a]pyridin-6-yl)phenol], the EC50 (commonly the midpoint of the concentration-response curve) lay within 50 to 500 nM.

Turning to `Cc1cn2cc(-c3ccc(-c4ccc(C5CNC5)nn4)c(O)c3)ccc2n1` [Compound 2, 2-(6-(azetidin-3-yl)pyridazin-3-yl)-5-(2-methylimidazo[1,2-a]pyridin-6-yl)phenol], the EC50 lay in the range of 50 to 500 nM.

With `Cc1cn2nc(-c3ccc(-c4ccc(C5CNC5)nn4)c(O)c3)cc(C)c2n1` [Compound 3, 2-[6-(azetidin-3-yl)pyridazin-3-yl]-5-{2,8-dimethylimidazo[1,2-b]pyridazin-6-yl}phenol], the EC50 fell in the range of 50 to 500 nM.

`Cc1cn2cc(-c3ccc(-c4ccc(C5CNC5)nn4)c(O)c3)cc(C)c2n1` [Compound 4, 2-(6-(azetidin-3-yl)pyridazin-3-yl)-5-(2,8-dimethylimidazo[1,2-a]pyridin-6-yl)phenol hydrochloride] showed an EC50 of at least 1000 nM.

Compound `Cc1cn2cc(-c3ccc(-c4ccc(C5CNC5)nn4)c(O)c3)cc(C(F)(F)F)c2n1` [Compound 5, 2-[6-(azetidin-3-yl)pyridazin-3-yl]-5-[2-methyl-8-(trifluoromethyl)imidazo[1,2-a]pyridin-6-yl]phenol] returned an EC50 of 50 to 500 nM.

For the compound `Cc1cc(-c2ccc(-c3ccc(C4CNC4)nn3)c(O)c2)cc2cn(C)nc12` [Compound 6, 2-(6-(azetidin-3-yl)pyridazin-3-yl)-5-(2,7-dimethyl-2H-indazol-5-yl)phenol hydrochloride], the EC50 lay within 500 to 1000 nM.

Compound `Cc1cn2cc(-c3cc(O)c(-c4ccc(C5CNC5)nn4)cc3F)cc(F)c2n1` [Compound 8, 2-[6-(azetidin-3-yl)pyridazin-3-yl]-4-fluoro-5-{8-fluoro-2-methylimidazo[1,2-a]pyridin-6-yl}phenol] yielded an EC50 of at least 1000 nM.

As to `Cc1cn2cc(-c3ccc(-c4ccc(C5CNC5)nn4)c(O)c3)nc(C)c2n1` [Compound 9, 2-[6-(azetidin-3-yl)pyridazin-3-yl]-5-{2,8-dimethylimidazo[1,2-a]pyrazin-6-yl}phenol], the EC50 fell in the range of 50 to 500 nM.

`Cc1cn2cc(-c3ccc(-c4ccc(C5CNC5)nn4)c(O)c3F)cc(F)c2n1` [Compound 10, 6-[6-(azetidin-3-yl)pyridazin-3-yl]-2-fluoro-3-{8-fluoro-2-methylimidazo[1,2-a]pyridin-6-yl}phenol]: the EC50 is under 50 nM.

In the case of `Cc1cn2cc(-c3cc(O)c(-c4ccc(C5CNC5)nn4)c(F)c3)cc(F)c2n1` [Compound 11, 2-[6-(azetidin-3-yl)pyridazin-3-yl]-3-fluoro-5-{8-fluoro-2-methylimidazo[1,2-a]pyridin-6-yl}phenol], the EC50 lay within 500 to 1000 nM.

`Cc1cc2cc(-c3ccc(-c4ccc(C5CNC5)nn4)c(O)c3)ccn2n1` [Compound 13, 2-[6-(azetidin-3-yl)pyridazin-3-yl]-5-{2-methylpyrazolo[1,5-a]pyridin-5-yl}phenol]: the EC50 was at least 1000 nM.

In the case of `Cc1cn2cc(-c3ccc(-c4ccc(C5CN(C)C5)nn4)c(O)c3)ccc2n1` [Compound 14, 2-[6-(1-methylazetidin-3-yl)pyridazin-3-yl]-5-{2-methylimidazo[1,2-a]pyridin-6-yl}phenol], the EC50 lay within 500 to 1000 nM.

`Cn1cc2cc(-c3ccc(-c4ccc(C5CNC5)nn4)c(O)c3)ccc2n1` [Compound 16, 2-[6-(azetidin-3-yl)pyridazin-3-yl]-5-(2-methyl-2H-indazol-5-yl)phenol]: the 50% effective concentration (EC50) was 50 to 500 nM.

`CCN1CC(c2ccc(-c3ccc(-c4cc(F)c5nc(C)cn5c4)cc3O)nn2)C1` [Compound 17, 2-[6-(1-ethylazetidin-3-yl)pyridazin-3-yl]-5-{8-fluoro-2-methylimidazo[1,2-a]pyridin-6-yl}phenol]: the EC50 is 50 to 500 nM.

In the case of `Cc1cn2cc(-c3ccc(-c4ccc(C5CN(C6CCOCC6)C5)nn4)c(O)c3)cc(F)c2n1` [Compound 18, 5-{8-fluoro-2-methylimidazo[1,2-a]pyridin-6-yl}-2-{6-[1-(oxan-4-yl)azetidin-3-yl]pyridazin-3-yl}phenol], the EC50 lay within 500 to 1000 nM.

As for `CN1CC(c2ccc(-c3ccc(-c4ccc5nn(C)cc5c4)cc3O)nn2)C1` [Compound 19, 5-(2-methyl-2H-indazol-5-yl)-2-[6-(1-methylazetidin-3-yl)pyridazin-3-yl]phenol], the EC50 was at least 1000 nM.

For the compound `Cc1cn2cc(-c3ccc(-c4ccc(C5CN(C)C5)nn4)c(O)c3)nc(C)c2n1` [Compound 20, 5-{2,8-dimethylimidazo[1,2-a]pyrazin-6-yl}-2-[6-(1-methylazetidin-3-yl)pyridazin-3-yl]phenol], the EC50 fell in the range of 500 to 1000 nM.

In the case of `Cc1cc2cc(-c3ccc(-c4ccc(C5CN(C)C5)nn4)c(O)c3)ccn2n1` [Compound 21, 2-[6-(1-methylazetidin-3-yl)pyridazin-3-yl]-5-{2-methylpyrazolo[1,5-a]pyridin-5-yl}phenol], the EC50 is at least 1000 nM.

`CCN1CC(c2ccc(-c3ccc(-c4ccc5nn(C)cc5c4)cc3O)nn2)C1` [Compound 24, 2-[6-(1-ethylazetidin-3-yl)pyridazin-3-yl]-5-(2-methyl-2H-indazol-5-yl)phenol]: the EC50 is 50 to 500 nM.

Turning to `CCN1CC(c2ccc(-c3ccc(-c4ccn5nc(C)cc5c4)cc3O)nn2)C1` [Compound 25, 2-[6-(1-ethylazetidin-3-yl)pyridazin-3-yl]-5-{2-methylpyrazolo[1,5-a]pyridin-5-yl}phenol], the EC50 is at least 1000 nM.

As to `Cc1cc(-c2ccc(-c3ccc(C4CN(C)C4)nn3)c(O)c2)cc2cn(C)nc12` [Compound 27, 5-(2,7-dimethyl-2H-indazol-5-yl)-2-[6-(1-methylazetidin-3-yl)pyridazin-3-yl]phenol], the concentration for a half-maximal effect (EC50) was in the range of 50 to 500 nM.

In turn, `Cc1cc2cc(-c3ccc(-c4ccc(C5CNC5)nn4)c(O)c3)cc(C)n2n1` [Compound 29, 2-[6-(azetidin-3-yl)pyridazin-3-yl]-5-{2,7-dimethylpyrazolo[1,5-a]pyridin-5-yl}phenol] registered an EC50 of 500 to 1000 nM.

On to `Cc1cn2nc(-c3ccc(-c4ccc(C5CN(C)C5)nn4)c(O)c3)cc(C)c2n1` [Compound 30, 5-{2,8-dimethylimidazo[1,2-b]pyridazin-6-yl}-2-[6-(1-methylazetidin-3-yl)pyridazin-3-yl]phenol], for which the EC50 is at least 1000 nM.

The compound `Cc1cn2nc(-c3ccc(-c4ccc(C5CNC5)nn4)c(O)c3)ccc2n1` [Compound 31, 2-[6-(azetidin-3-yl)pyridazin-3-yl]-5-{2-methylimidazo[1,2-b]pyridazin-6-yl}phenol] had an EC50 of 500 to 1000 nM.

With `CCN1CC(c2ccc(-c3ccc(-c4cn5cc(C)nc5c(C)n4)cc3O)nn2)C1` [Compound 32, 5-{2,8-dimethylimidazo[1,2-a]pyrazin-6-yl}-2-[6-(1-ethylazetidin-3-yl)pyridazin-3-yl]phenol], the EC50 was at least 1000 nM.

Consider `Cc1cn2cc(-c3ccc(-c4ccc(C5CNC5)nn4)c(O)c3)ncc2n1` [Compound 33, 2-[6-(azetidin-3-yl)pyridazin-3-yl]-5-{2-methylimidazo[1,2-a]pyrazin-6-yl}phenol], for which the EC50 fell in the range of 500 to 1000 nM.

In the case of `CCN1CC(c2ccc(-c3ccc(-c4cc(C)c5nn(C)cc5c4)cc3O)nn2)C1` [Compound 34, 5-(2,7-dimethyl-2H-indazol-5-yl)-2-[6-(1-ethylazetidin-3-yl)pyridazin-3-yl]phenol], the EC50 lay in the range of 50 to 500 nM.
